The test system of the assay is HepG-2 (Hepatocellular carcinoma). Kind of assay: SRB (sulforhodamine-B-stain) anticancer assay, HepG-2. The note with it: Homo sapiens, HepG2, HepG-2 cells, 48 hours at 37° C., absorbance 564 nm. Type of assay: cell-based. The method, then: Investigation for the bio-reactivity of PtL, as an antitumor candidate, was achieved versus well documented human cancer cell lines, as three cancers entitled HepG2, MCF-7, and HCT-116, using the simplest tool SRB (sulforhodamine-B-stain). In particular, the most popular anticancer referenced drug (vinblastine) was used in the anticancer assay (the inhibited action of the cancer cells) to compare its bio-reactivity versus that one of PtL. The antitumor reactivity of PtL was evaluated by IC50 concentrations (half effected concentration in μM) for inhibiting the growth of the tumor and normal cell lines of human in which IC50 concentrations were obtained from Eq. 1, below.
With HepG-2 (Hepatocellular carcinoma), HCT-116 (colon carcinoma), and MCF7 (breast adenocarcinoma), as human cancer cell lines, the antitumor potential of PtL was studied against their growth by applying a spectrometric tool. Using SRB (sulforhodamine-B-stain) was essential in the spectrometric studies at a specific wavelength (564 nm, the optimized absorption wavelength). Recording the corresponded absorbance (A) at 564 nm was accomplished using a UV/Vis. spectrophotometer, UV-1800 mode Shimadzu with a mono-cell holder. […]
(Sulforhodamine B stains cellular protein and so reports cell mass.)

For orientation: IC50 means the concentration that inhibits the measured activity by half. `CC[C@]1(O)C[C@@H]2CN(CCc3c([nH]c4ccccc34)[C@@](C(=O)OC)(c3cc4c(cc3OC)N(C)[C@H]3[C@@](O)(C(=O)OC)[C@H](OC(C)=O)[C@]5(CC)C=CCN6CC[C@]43[C@@H]65)C2)C1` [Vinblastine, vinblastine] had an IC50 of 7.5 ± 0.1 µM.

The values are drawn from patent US12054451B1, “Water soluble platinum (II) amino acid schiff base as an antitumor drug” (KING FAISAL UNIVERSITY, priority 2024, dated 2024).
